Results from publication PMC4322352, “Sirtinol Inhibits Neutrophil Elastase Activity and Attenuates Lipopolysaccharide-Mediated Acute Lung Injury in Mice” (Scientific Reports, 2015).

Target: T1, human neutrophil elastase (HNE) (Homo sapiens, UniProt P08246)
T1 construct: gene ELANE
T1 sequence (P08246 30-247): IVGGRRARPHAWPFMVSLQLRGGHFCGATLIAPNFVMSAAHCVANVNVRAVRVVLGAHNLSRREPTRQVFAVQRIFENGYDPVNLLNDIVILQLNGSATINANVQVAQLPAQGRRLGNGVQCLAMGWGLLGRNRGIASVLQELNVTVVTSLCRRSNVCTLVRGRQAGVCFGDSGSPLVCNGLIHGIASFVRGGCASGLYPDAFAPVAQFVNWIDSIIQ
Test: chromogenic enzymatic assay with purified HNE, absorbance at […] nm
Type: biochemical

CC(NC(=O)c1ccccc1/N=C/c1c(O)ccc2ccccc12)c1ccccc1 (stereo not shown) [Sirtinol, 2-[(2-hydroxynaphthalen-1-ylmethylene)amino]-N-(1-phenethyl) benzamide]
IC50: 8.4 ± 0.53 µM
